Laboratory results as given in patent publication US11667602B2, “Compounds and their use” (AstraZeneca AB, priority 2020, dated 2023).

Target: T1, human RXFP1 (Homo sapiens, UniProt Q9HBX9)
T1 sequence (Q9HBX9 1-757): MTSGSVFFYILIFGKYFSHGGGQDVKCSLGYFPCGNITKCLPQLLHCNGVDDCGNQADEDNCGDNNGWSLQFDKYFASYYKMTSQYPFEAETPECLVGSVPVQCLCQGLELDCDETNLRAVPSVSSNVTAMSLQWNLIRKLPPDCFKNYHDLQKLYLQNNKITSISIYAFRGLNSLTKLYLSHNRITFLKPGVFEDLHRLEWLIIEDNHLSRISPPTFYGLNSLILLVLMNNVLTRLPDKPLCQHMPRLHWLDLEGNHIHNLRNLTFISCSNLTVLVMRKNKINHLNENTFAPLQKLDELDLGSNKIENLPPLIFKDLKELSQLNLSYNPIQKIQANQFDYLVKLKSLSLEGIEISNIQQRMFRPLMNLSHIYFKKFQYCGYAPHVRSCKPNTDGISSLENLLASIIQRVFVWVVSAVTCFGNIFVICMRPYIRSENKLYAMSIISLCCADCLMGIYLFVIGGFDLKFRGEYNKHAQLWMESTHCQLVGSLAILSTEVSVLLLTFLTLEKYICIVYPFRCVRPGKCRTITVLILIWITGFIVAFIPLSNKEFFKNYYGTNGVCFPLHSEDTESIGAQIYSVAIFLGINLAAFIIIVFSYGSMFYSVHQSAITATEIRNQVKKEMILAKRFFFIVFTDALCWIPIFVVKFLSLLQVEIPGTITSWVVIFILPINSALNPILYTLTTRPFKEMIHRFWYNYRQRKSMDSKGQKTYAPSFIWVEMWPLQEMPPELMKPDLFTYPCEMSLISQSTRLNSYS
Assay: RXFP1 Hu cAMP (Test A)
Type: cell-based
Design: expressed in transfected cells; host or cells: Jump-In T-REx CHO-K1 cells (ThermoFisher), induced with 10 ng/ml doxycycline for 24 h
Conditions: RXFP1 Hu cAMP; for EC50: read-out: Test A EC50
Text: To screen for modulators of hRXFP1, an assay identifying compounds that stimulate cAMP production via the Gs-coupled hRXFP1 receptor was used. cAMP HiRange HTRF kit (available from CisBio Bioassays, France; catalogue number 62AM6PEJ) was employed in large according to manufacturer's recommendations for detection of cAMP. The HTRF method is a competitive immunoassay between native cAMP produced by cells and cAMP labeled with the dye d2. The tracer binding is visualized with a cryptate labeled antibody for cAMP and the signal is thus inversely proportional to the amount of produced cAMP.
Cells: Jump-In™ T-REx™ CHO-K1 Cells (ThermoFisher) stably transfected with human RXFP1 was employed. Cells were induced to express human RXFP1 by treatment with 10 ng/ml doxycycline for 24 h. Cells were then cryopreserved for long term storage.
HTRF detection reagents: cAMP-d2 and anti-cAMP cryptate reconstituted according to CisBio instructions were diluted 1:40 in lysis buffer provided with the HTRF-kit.
3. 4 μL assay buffer with 1 mM IBMX (0.5 mM final concentration) to block phosphodiesterases was added with Multidrop Combi (ThermoFisher).
6. 4 μL cAMP-d2 in lysis buffer was added with Multidrop Combi.
7. 4 μL anti-cAMP cryptate in lysis buffer was added with Multidrop Combi
8. 2 h incubation at room temperature
Using a cAMP standard curve, HTRF data was converted to amount cAMP produced in the samples which was subsequentially used for calculation of concentration responses. Concentration response data were fitted with a four parameter logistic fit, the Hill equation. The results from the assay are reported in Table 36 as EC50 (μM) and Sinf (%).
Where the assay was run multiple times for the same compound, the geometric mean is reported.
Sinf is the fitted activity level, efficacy, at infinite concentration of test compound. To facilitate comparison of efficacy data, efficacy was normalized to % effect of the response stimulated by a saturating concentration of relaxin (1 nM). Where the assay was run multiple times for the same compound, the arithmetic mean is reported.

Test A Sinf [%] | EC50 [nM] | Structure (SMILES)
86 | 780 | COc1cc(F)c(-c2cc(C)c(C(=O)O)c(C)c2)cc1C(=O)N[C@@H]1[C@H]2CC[C@H](C2)[C@@H]1C(=O)Nc1cccc(S(=O)(=O)C(F)(F)F)c1 [Example 252, 2′-Fluoro-4′-methoxy-3,5-dimethyl-5′-(((1S,2R,3S,4R)-3-((3-((trifluoromethyl)sulfonyl)phenyl)carbamoyl)bicyclo[2.2.1]heptan-2-yl)carbamoyl)-[1,1′-biphenyl]-4-carboxylic acid]
93 | 34 | COc1cc(F)c(O[C@H]2CC[C@@](C)(C(=O)O)CC2)cc1C(=O)N[C@@H]1COC[C@@H]1C(=O)Nc1ccc(F)c(S(F)(F)(F)(F)F)c1 (racemic) [Example 344]
104 | 44 | COc1cc(C#N)c(O[C@H]2CC[C@@](C)(C(=O)O)CC2)cc1C(=O)N[C@@H]1[C@H]2CC[C@H](C2)[C@@H]1C(=O)N[C@H]1CCCC[C@H]1CC(F)(F)F [Example 134]
104 | 950 | COc1cc(F)c(OCCCCCCCCC(=O)O)cc1C(=O)N[C@@H]1[C@H]2CC[C@H](C2)[C@@H]1C(=O)Nc1cccc(S(=O)(=O)C(F)(F)F)c1 [Example 437]
– | > 40000 | COc1cc(F)c(Cn2nccc2C(=O)O)cc1C(=O)N[C@@H]1[C@H]2CC[C@H](C2)[C@@H]1C(=O)Nc1cccc(S(=O)(=O)C(F)(F)F)c1 [Example 221, 1-(2-Fluoro-4-methoxy-5-(((1S,2R,3S,4R)-3-((3-((trifluoromethyl)sulfonyl)phenyl)carbamoyl)bicyclo[2.2.1]heptan-2-yl)carbamoyl)benzyl)-1H-pyrazole-5-carboxylic acid]
96 | 170 | COc1cc(F)c(O[C@H]2CC[C@@](C)(C(=O)O)CC2)cc1C(=O)NC1C2CCC(O2)C1C(=O)NCC1(C)CCC1 (single isomer, unassigned) [Example 530, (1R,4s)-4-(2-Fluoro-4-methoxy-5-(((1S*,2S*,3R*,4R*)-3-(((1-methylcyclobutyl)methyl)carbamoyl)-7-oxabicyclo[2.2.1]heptan-2-yl)carbamoyl)phenoxy)-1-methylcyclohexane-1-carboxylic acid]
95 | 370 | COc1cc(F)c(-c2cccc([C@@H](C(=O)O)N(C)C)c2)cc1C(=O)N[C@@H]1[C@H]2CC[C@H](C2)[C@@H]1C(=O)Nc1cccc(S(=O)(=O)C(F)(F)F)c1 (racemic) [Example 294]
105 | – | COc1cc(F)c(O[C@H]2CC[C@@](C)(C(=O)O)CC2)cc1C(=O)N[C@@H]1[C@H]2CC[C@H](C2)[C@@H]1C(=O)NCC(C)(C)OC [Example 610]
99 | 5100 | COc1cc(F)c(O[C@H]2CC[C@@](C)(C(=O)O)CC2)cc1C(=O)N[C@H]1[C@@H](C(=O)NCC2(C)CCC2)[C@@H]2CC[C@H]1O2 (racemic) [Example 358]
– | > 40000 | COc1cc(F)c(-c2ccc(C(=O)O)cc2)cc1C(=O)N[C@H]1[C@@H]2CC[C@@H](C2)[C@H]1C(=O)Nc1ccc(F)c(C(F)(F)F)c1 (single isomer, unassigned) [Example 590]
102 | 60 | COc1cc(F)c(O[C@H]2CC[C@@](C)(C(=O)O)CC2)cc1C(=O)N[C@@H]1[C@H]2CC[C@H](C2)[C@@H]1C(=O)NC1CCCC1(C)C (relative stereo) [Example 503, (1S,4s)-4-(5-(((1S,2R,3S,4R)-3-(((R*)-2,2-Dimethylcyclopentyl)carbamoyl)bicyclo[2.2.1]heptan-2-yl)carbamoyl)-2-fluoro-4-methoxyphenoxy)-1-methylcyclohexane-1-carboxylic acid]
106 | 0.7 | COc1cc(F)c(O[C@H]2CC[C@@](CO)(C(=O)O)CC2)cc1C(=O)NC1C2CCC(C2)C1C(=O)Nc1cccc(S(=O)(=O)C(F)(F)F)c1 (single isomer, unassigned) [Example 584, (1R,4s)-4-(2-Fluoro-4-methoxy-5-(((1S*,2S*,3R*,4R*)-3-((3-((trifluoromethyl)sulfonyl)phenyl)carbamoyl)bicyclo[2.2.1]heptan-2-yl)carbamoyl)phenoxy)-1-(hydroxymethyl)cyclohexane-1-carboxylic acid]
– | > 40000 | COc1cc(F)c(O[C@H]2CC[C@@H](C(=O)OC)CC2)cc1C(=O)N[C@@H]1C[C@H](O)C[C@@H]1C(=O)Nc1cccc(S(=O)(=O)C(F)(F)F)c1 (racemic) [Example 496]
104 | 140 | COc1cc(F)c(OC[C@H]2C[C@@H](C(=O)O)C2)cc1C(=O)N[C@@H]1[C@@H]2CC[C@@H](C2)[C@@H]1C(=O)Nc1cccc(S(=O)(=O)C(F)(F)F)c1 [Example 473, (1S,3s)-3-((2-Fluoro-4-methoxy-5-(((1R,2R,3S,4S)-3-((3-((trifluoromethyl)sulfonyl)phenyl)carbamoyl)bicyclo[2.2.1]heptan-2-yl)carbamoyl)phenoxy)methyl)cyclobutane-1-carboxylic acid]
107 | 720 | COc1cc(C#N)c(O[C@H]2CC[C@@](C)(C(=O)O)CC2)cc1C(=O)N[C@@H]1[C@H]2CC[C@H](C2)[C@@H]1C(=O)NCc1ccc(F)c(F)c1 [Example 123]
96 | 530 | COCC1(CNC(=O)[C@H]2[C@@H]3CC[C@@H](C3)[C@H]2NC(=O)c2cc(O[C@H]3CC[C@@](C)(C(=O)O)CC3)c(F)cc2OC)CCC1 [Example 594]
99 | 36 | COc1cc(C#N)c(O[C@H]2CC[C@@](C)(C(=O)O)CC2)cc1C(=O)N[C@H]1[C@@H](C(=O)NCC2(C)CCC2)[C@H]2C=C[C@@H]1CC2 (racemic) [Example 469, (1R,4s)-4-(2-Cyano-4-methoxy-5-(((1RS,2SR,3RS,4SR)-3-(((1-methylcyclobutyl)methyl)carbamoyl)bicyclo[2.2.2]oct-5-en-2-yl)carbamoyl)phenoxy)-1-methylcyclohexane-1-carboxylic acid]
104 | – | COc1cc(F)c(-c2ccc(C(=O)O)cn2)cc1C(=O)N[C@H]1[C@@H](C(=O)Nc2cccc(S(=O)(=O)C(F)(F)F)c2)[C@@H]2C=C[C@H]1C2 (racemic) [Example 278]
84 | – | COc1cc(F)c(O[C@H]2CC[C@](C)(CC(=O)O)CC2)cc1C(=O)N[C@@H]1[C@H]2CC[C@H](C2)[C@@H]1C(=O)NCC1(C)CCC1 [Example 477, 2-((1R,4r)-4-(2-Fluoro-4-methoxy-5-(((1S,2R,3S,4R)-3-(((1-methylcyclobutyl)methyl)carbamoyl)bicyclo[2.2.1]heptan-2-yl)carbamoyl)phenoxy)-1-methylcyclohexyl)acetic acid]
101 | 33 | COc1cc(F)c(-c2ccc(OCCCC(=O)O)cc2)cc1C(=O)N[C@@H]1[C@H]2CC[C@H](C2)[C@@H]1C(=O)Nc1cccc(S(=O)(=O)C(F)(F)F)c1 [Example 251, 4-((2′-Fluoro-4′-methoxy-5′-(((1S,2R,3S,4R)-3-((3-((trifluoromethyl)sulfonyl)phenyl)carbamoyl)bicyclo[2.2.1]heptan-2-yl)carbamoyl)-[1,1′-biphenyl]-4-yl)oxy)butanoic acid]
– | > 40000 | COc1ccc(Oc2ccccc2C(=O)O)cc1C(=O)N[C@H]1[C@@H](C(=O)Nc2cccc(S(=O)(=O)C(F)(F)F)c2)[C@@H]2C=C[C@H]1C2 (racemic) [Example 429]
